Assays:
[1] = tested on: Kelly or SH-SY5Y cells; test: Viability / proliferation of neuroblastoma cell lines treated with lorlatinib; type: cell-based, human; settings: 100 nM
Procedure: First generation ALK tyrosine kinase inhibitors (TKIs), such as crizotinib, have limited therapeutic efficacy in neuroblastoma, while the third generation ALK TKI, lorlatinib, is effective against mutated neuroblastoma (Infarinato N R, et al., The ALK/ROS1 Inhibitor PF-06463922 Overcomes Primary Resistance to Crizotinib in ALK-Driven Neuroblastoma. Cancer Discov 2016 January; 6(1):96-107). The effects of lorlatinib on ALK viability and expression in neuroblastoma cells was evaluated. Several neuroblastoma cell lines with various ALK genetic alterations, including NB-1 (ALK WT amplified), IMR-32 (ALK WT), NBL-S(ALK WT), SH-SY5Y (mutated ALK^F1174L), Kelly (mutated ALK^F1174L), were treated with increasing doses of lorlatinib (FIG. 10A). Viability was measured at 48 hours.
In white 96-well plates, 3×10^4 cells/mL were grown in triplicates. The treatment with lorlatinib was done after 24 hour. Cell growth was analyzed 5 days after treatment using Cell Titer-GloMax assay (Promega, Fitchburg, Wis., USA), according to the manufacturer's instructions. In 24-well plates, 5×10^4 cells/mL were grown in triplicates. […] Apoptosis was measured 48 hours after treatment by flow cytometry after staining with the FITC Annexin V and propidium iodide (PI) Staining Solution Apoptosis Detection Kit I (BD Pharmingen) according to the manufacturer's instructions.

[2] = tested on: Eμ-myc/ALK systemic tumors; test: Adoptive transfer in CD19+/ALK+ systemic leukemia model; type: in vivo, mice
Procedure: The CD19+/ALK+systemic leukemia model was used to validate and rank cytolytic activity of ALK CARs in vivo. Adoptive transfer of ALK CAR-T cells was conducted in mice with Eμ-myc/ALK systemic tumors. Mice were treated with cytophspamide (CTX, 100 mg/kg) alone (n=8), cytophosphamide plus CAR-CD19 (15×10^6 based on GFP+) (n=8), or cytophosphamide plus CAR-ALK #5 (15×10^6 based on GFP+) (n=8). Untreated mice (n=6) were used as a negative control. FIG. 5A provides a survival curve of these treated mice.
Circulating CD19+/ALK+ tumor cells were found in peripheral blood (FIG. 5B, Left). An ALK+ tumor mass was isolated close to lymph node (FIG. 5B, Right). FACS analysis was also conducted on the 6 out of 8 mice that survived more than two months. No tumor cells were found in peripheral blood of these mice (FIG. 5C).

## C[C@H]1Oc2cc(cnc2N)-c2c(nn(C)c2C#N)CN(C)C(=O)c2ccc(F)cc21 [Lorlatinib, lorlatinib]
[1]
  reduction of proliferation: less than 50%

## O=P1(N(CCCl)CCCl)NCCCO1 (stereo not drawn) [cyclophosphamide]
[2]; CD19+/ALK+ cells
  tumor cells in peripheral blood by FACS: CD19+/ALK+ cells were found in one mouse
[2]; Eμ-myc/ALK systemic tumors, CTX 100 mg/kg, CAR-T 15×10^6 based on GFP+
  survival of mice: died within one month
